Earlier results as cited in patent US20250169531A1 (priority 2023, published 2025).

Details: at 25° C.

SMILES: CN1CCCC1c1cccnc1 (stereo not shown) [Nicotine]
- pka of the nitrogen of the pyridine ring: 3.41
